Structures are written as SMILES.

This experiment has as its target T1, recombinant human sEH (Homo sapiens, UniProt P34913).
T1 construct: purchased Cayman
T1 sequence (P34913 1-555): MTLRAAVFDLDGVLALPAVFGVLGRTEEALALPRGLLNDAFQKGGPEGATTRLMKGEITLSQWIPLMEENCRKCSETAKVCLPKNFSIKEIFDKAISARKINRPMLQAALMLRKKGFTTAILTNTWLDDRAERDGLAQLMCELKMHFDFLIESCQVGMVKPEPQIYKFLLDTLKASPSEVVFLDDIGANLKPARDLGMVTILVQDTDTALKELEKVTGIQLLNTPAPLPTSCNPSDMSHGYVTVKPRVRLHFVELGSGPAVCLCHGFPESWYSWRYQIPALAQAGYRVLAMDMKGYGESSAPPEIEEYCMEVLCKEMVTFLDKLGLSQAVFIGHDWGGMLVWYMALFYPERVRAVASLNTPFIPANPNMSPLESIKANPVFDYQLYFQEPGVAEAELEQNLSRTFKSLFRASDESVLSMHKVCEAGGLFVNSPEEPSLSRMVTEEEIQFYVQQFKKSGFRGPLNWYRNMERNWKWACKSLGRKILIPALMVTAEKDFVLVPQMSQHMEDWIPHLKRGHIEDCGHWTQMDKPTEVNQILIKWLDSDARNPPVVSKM
Kind of experiment: In vitro evaluation test for sEH inhibitory activity. Type of experiment: biochemical. Conditions: recombinant human sEH 0.026 μg/mL, fluorescent substrate 6.25 μmol/L, room temperature. The procedure:
According to the method described in a known document (Analytical Biochemistry, 2005, vol. 343, p. 66-75), the sEH inhibitory activity of each nipecotic acid derivative (I) or a pharmaceutically acceptable salt thereof was evaluated using human sEH.
A recombinant human sEH (final concentration, 0.026 μg/mL; Cayman) was incubated with each test compound in 25 mM Bis-Tris-HCl buffer (pH 7.0) supplemented with 0.1 mg/mL BSA at room temperature for 30 minutes. Thereafter, cyano(6-methoxynaphthalen-2-yl)methyl 2-(3-phenyloxiran-2-yl)acetate (final concentration, 6.25 μmol/L; Cayman) was added thereto as a fluorescent substrate, and the resulting mixture was incubated at room temperature for 20 minutes. The reaction was then stopped by addition of ZnSO4 (final concentration, 0.2 mol/L), and the fluorescence intensity was measured (Fusion α (Packard); Excitation: 330 nm, Emission:485 nm).
The fluorescence intensity observed with addition of neither sEH nor a test compound was regarded as the sEH enzymatic reaction rate of 0%, and the fluorescence intensity observed with addition of sEH but without addition of a test compound was regarded as the sEH enzymatic reaction rate of 100%. From the obtained fluorescence intensity, the sEH enzymatic reaction rate of each test compound was calculated to determine IC50.
For `CC(C)(O)[C@@H](NS(C)(=O)=O)C(=O)N1CCC[C@@H](C(=O)NCc2ccc(C#N)cc2OC(F)(F)F)C1` [Example Compound 32, (R)—N-(4-cyano-2-(trifluoromethoxy)benzyl)-1-((R)-3-hydroxy-3-methyl-2-(methylsulfonamido)butanoyl)piperidine-3-carboxamide], the IC50 (usually the concentration at which inhibition is half-maximal) was determined as 1 nM.

For the compound `CC(=O)NC1(C(=O)N2CCC[C@@H](C(=O)NCc3ccc(C#N)cc3OC(F)(F)F)C2)CCCC1` [Example Compound 8, (R)-1-(1-acetamidocyclopentanecarbonyl)-N-(4-cyano-2-(trifluoromethoxy)benzyl)piperidine-3-carboxamide], the IC50 worked out at 1.7 nM.

Turning to `N#Cc1ccc(CNC(=O)[C@@H]2CCCN(C(=O)C3(C#N)CC3)C2)c(OC(F)(F)F)c1` [Example Compound 23, (R)—N-(4-cyano-2-(trifluoromethoxy)benzyl)-1-(1-cyanocyclopropanecarbonyl)piperidine-3-carboxamide], the concentration for half-maximal inhibition (IC50) was 1.8 nM.

For `CC(=O)N[C@H](C)C(=O)N1CCC[C@@H](C(=O)NCc2ccc(C#N)cc2OC(F)(F)F)C1` [Example Compound 24, (R)-1-((R)-2-acetamidopropanoyl)-N-(4-cyano-2-(trifluoromethoxy)benzyl)piperidine-3-carboxamide], the IC50 turned out to be 2.5 nM.

`CN(C1(C(=O)N2CCC[C@@H](C(=O)NCc3ccc(C#N)cc3OC(F)(F)F)C2)CC1)S(C)(=O)=O` [Example Compound 18, (R)—N-(4-cyano-2-(trifluoromethoxy)benzyl)-1-(1-(N-methylmethylsulfonamido)cyclopropanecarbonyl)piperidine-3-carboxamide]: the concentration for half-maximal inhibition (IC50) came out at 1.6 nM.

Regarding `C[C@@H](O)C(=O)N1CCC[C@@H](C(=O)NCc2ccc(C#N)cc2OC(F)(F)F)C1` [Example Compound 42, (R)—N-(4-cyano-2-(trifluoromethoxy)benzyl)-1-((R)-2-hydroxypropanoyl)piperidine-3-carboxamide], the IC50 is 3.5 nM.

`CC(C)(O)C(=O)N1CCC[C@@H](C(=O)NCc2ccc(C#N)cc2OC(F)(F)F)C1` [Example Compound 16, (R)—N-(4-cyano-2-(trifluoromethoxy)benzyl)-1-(2-hydroxy-2-methylpropanoyl)piperidine-3-carboxamide]: the IC50 amounted to 2.4 nM.

As for `N#Cc1ccc(CNC(=O)[C@@H]2CCCN(C(=O)C3(C(F)(F)F)CC3)C2)c(OC(F)(F)F)c1` [Example Compound 4, (R)—N-(4-cyano-2-(trifluoromethoxy)benzyl)-1-(1-(trifluoromethyl)cyclopropanecarbonyl)piperidine-3-carboxamide], the IC50 was 1 nM.

With `CS(=O)(=O)NC1(C(=O)N2CCC[C@@H](C(=O)NCc3ccc(C(N)=O)cc3OC(F)(F)F)C2)CC1` [Example Compound 15], the 50% inhibitory concentration (IC50) is 1.9 nM.

For the compound `CC(C)[C@@H](O)C(=O)N1CCC[C@@H](C(=O)NCc2ccc(C#N)cc2OC(F)(F)F)C1` [Example Compound 44, (R)—N-(4-cyano-2-(trifluoromethoxy)benzyl)-1-((R)-2-hydroxy-3-methylbutanoyl)piperidine-3-carboxamide], the IC50 turned out to be 0.5 nM.

`CC(C)(C(=O)N1CCC[C@@H](C(=O)NCc2ccc(C#N)cc2OC(F)(F)F)C1)n1cncn1` [Example Compound 36, (R)—N-(4-cyano-2-(trifluoromethoxy)benzyl)-1-(2-methyl-2-(1H-1,2,4-triazol-1-yl)propanoyl)piperidine-3-carboxamide]: the IC50 came out at 1.5 nM.

In the case of `O=C(NCc1ccc(Cl)cc1Cl)[C@@H]1CCCN(C(=O)C2(O)CCCCC2)C1` [Example Compound 38, (R)—N-(2,4-dichlorobenzyl)-1-(1-hydroxycyclohexanecarbonyl)piperidine-3-carboxamide], the IC50 amounted to 2.1 nM.

On to `N#Cc1ccc(CNC(=O)[C@@H]2CCCN(C(=O)C3(NC(=O)CC4CC4)CCC3)C2)c(OC(F)(F)F)c1` [Example Compound 34, (R)—N-(4-cyano-2-(trifluoromethoxy)benzyl)-1-(1-(2-cyclopropylacetamido)cyclobutanecarbonyl)piperidine-3-carboxamide], for which the IC50 is 0.8 nM.

For `CC(C)(C)C(=O)N1CCC[C@@H](C(=O)NCc2ccc(C#N)cc2OC(F)(F)F)C1` [Example Compound 17, (R)—N-(4-cyano-2-(trifluoromethoxy)benzyl)-1-pivaloylpiperidine-3-carboxamide], the IC50 came out at 1.1 nM.

In the case of `CC[C@@H](NC(C)=O)C(=O)N1CCC[C@@H](C(=O)NCc2ccc(C#N)cc2OC(F)(F)F)C1` [Example Compound 21, (R)-1-((R)-2-acetamidobutanoyl)-N-(4-cyano-2-(trifluoromethoxy)benzyl)piperidine-3-carboxamide], the IC50 was 0.9 nM.

On to `C[C@@H](NS(C)(=O)=O)C(=O)N1CCC[C@@H](C(=O)NCc2ccc(C#N)cc2OC(F)(F)F)C1` [Example Compound 25, (R)—N-(4-cyano-2-(trifluoromethoxy)benzyl)-1-((R)-2-(methylsulfonamido)propanoyl)piperidine-3-carboxamide], for which the IC50 amounted to 1.8 nM.

Regarding `CC[C@@H](NS(C)(=O)=O)C(=O)N1CCC[C@@H](C(=O)NCc2ccc(C#N)cc2OC(F)(F)F)C1` [Example Compound 22, (R)—N-(4-cyano-2-(trifluoromethoxy)benzyl)-1-((R)-2-(methylsulfonamido)butanoyl)piperidine-3-carboxamide], the IC50 is 0.5 nM.

As to `CC(C)C(=O)NC1(C(=O)N2CCC[C@@H](C(=O)NCc3ccc(C#N)cc3OC(F)(F)F)C2)CCC1` [Example Compound 6, (R)—N-(4-cyano-2-(trifluoromethoxy)benzyl)-1-(1-isobutylamidocyclobutanecarbonyl)piperidine-3-carboxamide], the IC50 amounted to 1 nM.

Take `CS(=O)(=O)NC1(C(=O)N2CCC[C@@H](C(=O)NCc3ccc(C#N)cc3OC(F)(F)F)C2)CC1` [Example Compound 3, (R)—N-(4-cyano-2-(trifluoromethoxy)benzyl)-1-(1-(methylsulfonamido)cyclopropanecarbonyl)piperidine-3-carboxamide]: the 50% inhibitory concentration (IC50) stood at 3.5 nM.

In the case of `CC(C)(C)C(=O)NC1(C(=O)N2CCC[C@@H](C(=O)NCc3ccc(C#N)cc3OC(F)(F)F)C2)CCC1` [Example Compound 7, (R)—N-(4-cyano-2-(trifluoromethoxy)benzyl)-1-(1-pivalamidocyclobutanecarbonyl)piperidine-3-carboxamide], the IC50 was 0.8 nM.

Regarding `O=C(Nc1ccc(C(F)(F)F)cn1)[C@@H]1CCCN(C(=O)C2(O)CCCCC2)C1` [Comparative Example Compound 1, (R)-1-(1-hydroxycyclohexanecarbonyl)-N-(5-(trifluoromethyl)pyridin-2-yl)piperidine-3-carboxamide, reference compound], the IC50 is greater than 20 nM.

Take `CC(=O)NC1(C(=O)N2CCC[C@@H](C(=O)NCc3ccc(C#N)cc3OC(F)(F)F)C2)CCC1` [Example Compound 9, (R)-1-(1-acetamidocyclobutanecarbonyl)-N-(4-cyano-2-(trifluoromethoxy)benzyl)piperidine-3-carboxamide]: the IC50 was determined as 6.1 nM.

Turning to `CC(=O)N[C@@H](C(=O)N1CCC[C@@H](C(=O)NCc2ccc(Cl)cc2Cl)C1)C(C)(C)O` [Example Compound 39], the half-inhibitory concentration (IC50) is 0.7 nM.

On to `N#Cc1ccc(CNC(=O)[C@@H]2CCCN(C(=O)C3(O)CCCCC3)C2)c(OC(F)(F)F)c1` [Example Compound 20, (R)—N-(4-cyano-2-(trifluoromethoxy)benzyl)-1-(1-hydroxycyclohexanecarbonyl)piperidine-3-carboxamide], for which the IC50 came out at 0.7 nM.

Turning to `CC(=O)N[C@@H](C(=O)N1CCC[C@@H](C(=O)NCc2ccc(C#N)cc2OC(F)(F)F)C1)C(C)(C)O` [Example Compound 30, (R)-1-((R)-2-acetamido-3-hydroxy-3-methylbutanoyl)-N-(4-cyano-2-(trifluoromethoxy)benzyl)piperidine-3-carboxamide], the half-maximal inhibitory concentration (IC50) is 1.4 nM.

With `CC(C)C(=O)NC1(C(=O)N2CCC[C@@H](C(=O)NCc3ccc(C#N)cc3OC(F)(F)F)C2)CC1` [Example Compound 26, (R)—N-(4-cyano-2-(trifluoromethoxy)benzyl)-1-(1-isobutylamidocyclopropanecarbonyl)piperidine-3-carboxamide], the IC50 came to 5.8 nM.

As to `CS(=O)(=O)NC1(C(=O)N2CCC[C@@H](C(=O)NCc3ccc(C#N)cc3OC(F)(F)F)C2)CCC1` [Example Compound 5, (R)—N-(4-cyano-2-(trifluoromethoxy)benzyl)-1-(1-(methylsulfonamido)cyclobutanecarbonyl)piperidine-3-carboxamide], the IC50 is 1 nM.
